Experiments:
Assay in all cases: Bliss excess, mean over the matrix (fraction); higher = more synergy
[1] = tested on: HAL-01 (B-Lymphoblastic Leukemia)
Outline: (§1)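 Cell lines grown in DMEM/F12 or RPMI with 10% FBS were plated in 1536-well plates and held 24 hours at 37°C, 5% CO2 before 72 hours of exposure to two-drug dose matrices, with DMSO typically at 0.2%. CellTiter-Glo 2.0 luminescence gave viability, which was converted to inhibition. Vehicle wells were set to 0 and blank wells to 1. Combination Emax is the second-highest inhibition in the matrix, and Bliss excess is the observed combination effect minus the expected EA + EB − EA·EB, where EA and EB are the single-agent effects.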

[2] = tested on: MDA-MB-453 (Breast Carcinoma)
Outline: as §1

[3] = tested on: EJM (Plasma Cell Myeloma)
Outline: as §1

[4] = tested on: EFO-21 (Ovarian Carcinoma)
Outline: as §1

Row | SMILES | Bliss excess [1] | Bliss excess [2] | Bliss excess [3] | Bliss excess [4]
1 | CCN(CCO)CCCOc1ccc2c(Nc3cc(CC(=O)Nc4cccc(F)c4)[nH]n3)ncnc2c1 [AZD2811] + C[C@@H]1COCCN1C2=NC(=NC(=C2)C3(CC3)[S@](=N)(=O)C)C4=C5C=CNC5=NC=C4 [AZD6738] (first compound max 1 µM, 7x7, partner max 10 µM) | 0.0306 | -0.0352 | -0.0286 | -0.0656
2 | CCN(CCO)CCCOc1ccc2c(Nc3cc(CC(=O)Nc4cccc(F)c4)[nH]n3)ncnc2c1 [AZD2811] + O=C(c1cc(Cc2n[nH]c(=O)c3ccccc23)ccc1F)N1CCN(C(=O)C2CC2)CC1 [Olaparib] (first compound max 1 µM, 7x7, partner max 10 µM) | -0.043 | -0.0253 | 0.0335 | -0.0409
3 | NC1(C(=O)N[C@@H](CCO)c2ccc(Cl)cc2)CCN(c2ncnc3[nH]ccc23)CC1 [Capivasertib] + Cn1cnc2c(F)c(Nc3ccc(Br)cc3Cl)c(C(=O)NOCCO)cc21 [Selumetinib] (first compound max 10 µM, 7x7, partner max 10 µM) | 0.0548 | 0.0079 | 0.08 | -0.0352
4 | COc1nnc2ccc(N3CCC(c4ccc(OCCN5CCN(C)C(=O)[C@H]5C)cc4)CC3)nn12 [AZD5153] + CCN(CCO)CCCOc1ccc2c(Nc3cc(CC(=O)Nc4cccc(F)c4)[nH]n3)ncnc2c1 [AZD2811] (first compound max 1 µM, 7x7, partner max 1 µM) | -0.0689 | -0.0087 | 0.0224 | -0.0771
5 | NC1(C(=O)N[C@@H](CCO)c2ccc(Cl)cc2)CCN(c2ncnc3[nH]ccc23)CC1 [Capivasertib] + CC(C)n1c(=O)n(C)c2cnc3cc(F)c(-c4ccc(OCCCN5CCCCC5)nc4)cc3c21 [AZD1390] (first compound max 10 µM, 7x7, partner max 0.3 µM) | -0.0354 | -0.0471 | -0.0543 | -0.0361
6 | NC1(C(=O)N[C@@H](CCO)c2ccc(Cl)cc2)CCN(c2ncnc3[nH]ccc23)CC1 [Capivasertib] + CCN(CCO)CCCOc1ccc2c(Nc3cc(CC(=O)Nc4cccc(F)c4)[nH]n3)ncnc2c1 [AZD2811] (first compound max 10 µM, 7x7, partner max 1 µM) | -0.0779 | 0.002 | 0.0798 | -0.0156
7 | CC1(C)CCC(CN2CCN(c3ccc(C(=O)NS(=O)(=O)c4ccc(NCC5CCOCC5)c([N+](=O)[O-])c4)c(Oc4cnc5[nH]ccc5c4)c3)CC2)=C(c2ccc(Cl)cc2)C1 [Venetoclax] + C=CCn1c(=O)c2cnc(Nc3ccc(N4CCN(C)CC4)cc3)nc2n1-c1cccc(C(C)(C)O)n1 [AZD1775] (first compound max 1 µM, partner max 1 µM) | 0.0564 | 0.0707 | -0.0641 | 0.0233
8 | CCc1c2c(nc3ccc(O)cc13)-c1cc3c(c(=O)n1C2)COC(=O)[C@]3(O)CC [SN-38] + CN(C)CCCOc1ccc(-c2ccc3ncc4c(c3c2)n(C2CCOCC2)c(=O)n4C)cn1 [AZD0156] (first compound max 0.3 µM, 7x7, partner max 1 µM) | 0.0451 | -0.0505 | -0.0052 | -0.0125
9 | CN(CCO)CC[C@H](CSc1ccccc1)Nc1ccc(S(=O)(=O)NC(=O)c2ccc(N3CCC([C@@H](O)c4ccccc4-c4ccc(Cl)cc4)CC3)cc2)cc1S(=O)(=O)C(F)(F)F [AZD4320] + C=CCn1c(=O)c2cnc(Nc3ccc(N4CCN(C)CC4)cc3)nc2n1-c1cccc(C(C)(C)O)n1 [AZD1775] (first compound max 1 µM, partner max 1 µM) | 0.0695 | 0.047 | 0.0256 | -0.078
10 | COc1nnc2ccc(N3CCC(c4ccc(OCCN5CCN(C)C(=O)[C@H]5C)cc4)CC3)nn12 [AZD5153] + C=CCn1c(=O)c2cnc(Nc3ccc(N4CCN(C)CC4)cc3)nc2n1-c1cccc(C(C)(C)O)n1 [AZD1775] (first compound max 1 µM, partner max 1 µM) | -0.0938 | -0.0243 | 0.0229 | -0.0036
11 | CN(C)CCCOc1ccc(-c2ccc3ncc4c(c3c2)n(C2CCOCC2)c(=O)n4C)cn1 [AZD0156] + O=C(c1cc(Cc2n[nH]c(=O)c3ccccc23)ccc1F)N1CCN(C(=O)C2CC2)CC1 [Olaparib] (first compound max 3 µM, partner max 3 µM) | 0.191 | -0.0266 | 0.0719 | -0.0149
12 | CC1(C)CCC(CN2CCN(c3ccc(C(=O)NS(=O)(=O)c4ccc(NCC5CCOCC5)c([N+](=O)[O-])c4)c(Oc4cnc5[nH]ccc5c4)c3)CC2)=C(c2ccc(Cl)cc2)C1 [Venetoclax] + COc1cc(Nc2ncc3c(n2)-c2ccc(Cl)cc2C(c2c(F)cccc2OC)=NC3)ccc1C(=O)O [Alisertib] (first compound max 1 µM, 7x7, partner max 10 µM) | 0.121 | -0.0415 | -0.0024 | -0.0576
13 | NC1(C(=O)N[C@@H](CCO)c2ccc(Cl)cc2)CCN(c2ncnc3[nH]ccc23)CC1 [Capivasertib] + COc1nnc2ccc(N3CCC(c4ccc(OCCN5CCN(C)C(=O)[C@H]5C)cc4)CC3)nn12 [AZD5153] (first compound max 10 µM, 7x7, partner max 1 µM) | -0.0429 | -0.0148 | 0.0732 | -0.046

From the supplement of paper PMC11061612
